Measurements published in US8163755B2, “Hexahydrooxazinopterine compounds” (Takeda Pharmaceutical Company Limited, priority 2009, dated 2012).
Where a name gives a salt, the structure may show the parent alone.

Target: T1, human mTOR (Homo sapiens, UniProt P42345)
T1 construct: purchased Invitrogen
Test: Inhibition of mTOR (Example A, LanthaScreen TR-FRET, GFP-4E-BP1 substrate)
Type: biochemical
Details: inhibition of human mTOR in the assay of Example A
Description: Example A Inhibition of mTOR
Purified mTOR are purchased from Invitrogen. mTOR activity was determined using Invitrogen's LanthaScreen system. The inhibitory properties of compounds relative to mTOR may be determined using a black 384-well-plate format in the following buffer 50 mM Hepes, 10 mM NaCl, 10 mM MgCl2, 0.2 mM EDTA, 0.01% Brij35, 2 mM DTT at pH7.3. The test compound is prepared in DMSO using 2 fold serial dilutions for 11 data points which are added to the buffer so that each dilution contains 3% DMSO.
An Assay for mTOR Inhibition is as Follows:
Combine in each well 2 μl of 1.2 μM GFP-4E-BP1 (Invitrogen) and 150 μM ATP (in buffer), 2 μl of diluted test compound (3% DMSO in buffer), and 2 μl of 6 nM mTor in buffer. The reaction mixture is then incubated at room temperature for 30 min, and quenched by adding 40 mM ETDA with 4 nM Tb-anti-p4E-BP1 [pThr46] antibody in TR-FRET dilution buffer (Invitrogen). The plate is kept at room temperature for 1 hour and then read using PheraStar (BMG labtech) LanthaScreen mode.
pIC50 values, the negative of the log of the IC50, are calculated by non-linear curve fitting of the compound concentrations and percent of inhibition to the standard pIC50 equation.

Compound | IC50 [µM]
CNC(=O)Nc1ccc(-c2ncc3c(n2)N2CCOCC2(C)C(=O)N3CC2CC2)cc1 (centres unmarked) [Example 1, 1-(4-(5-(cyclopropylmethyl)-6a-methyl-6-oxo-5,6,6a,7,9,10-hexahydro-[1,4]oxazino[3,4-h]pteridin-2-yl)phenyl)-3-methylurea] | < 0.0316
CNC(=O)Nc1ccc(-c2ncc3c(n2)N2CCOC[C@]2(C)C(=O)N3CC2CC2)cc1 [Example 3, (R)-1-(4-(5-(cyclopropylmethyl)-6a-methyl-6-oxo-5,6,6a,7,9,10-hexahydro-[1,4]oxazino[3,4-h]pteridin-2-yl)phenyl)-3-methylurea] | < 0.0316
CNC(=O)Nc1ccc(-c2ncc3c(n2)N2CCOC[C@@]2(C)C(=O)N3CC2CC2)cc1 [Example 4, (S)-1-(4-(5-(cyclopropylmethyl)-6a-methyl-6-oxo-5,6,6a,7,9,10-hexahydro-[1,4]oxazino[3,4-h]pteridin-2-yl)phenyl)-3-methylurea] | 0.0316 to 1
CCNC(=O)Nc1ccc(-c2ncc3c(n2)N2CCOCC2(C)C(=O)N3CC2CC2)cc1 (centres unmarked) [Example 5, 1-(4-(5-(cyclopropylmethyl)-6a-methyl-6-oxo-5,6,6a,7,9,10-hexahydro-[1,4]oxazino[3,4-h]pteridin-2-yl)phenyl)-3-ethylurea, TFA salt] | < 0.0316
CC12COCCN1c1nc(-c3ccc(NC(=O)NC4CC4)cc3)ncc1N(CC1CC1)C2=O (centres unmarked) [Example 6, 1-cyclopropyl-3-(4-(5-(cyclopropylmethyl)-6a-methyl-6-oxo-5,6,6a,7,9,10-hexahydro-[1,4]oxazino[3,4-h]pteridin-2-yl)phenyl)urea, TFA salt] | 0.0316 to 1
CCNC(=O)Nc1ccc(-c2ncc3c(n2)N2CCOC[C@@]2(C)C(=O)N3CC2CC2)cc1 [Example 7, (S)-1-(4-(5-(cyclopropylmethyl)-6a-methyl-6-oxo-5,6,6a,7,9,10-hexahydro-[1,4]oxazino[3,4-h]pteridin-2-yl)phenyl)-3-ethylurea] | < 0.0316
C[C@@]12COCCN1c1nc(-c3ccc(NC(=O)NC4CC4)cc3)ncc1N(CC1CC1)C2=O [Example 9, (S)-1-cyclopropyl-3-(4-(5-(cyclopropylmethyl)-6a-methyl-6-oxo-5,6,6a,7,9,10-hexahydro-[1,4]oxazino[3,4-h]pteridin-2-yl)phenyl)urea] | < 0.0316
CNC(=O)Nc1ccc(-c2ncc3c(n2)N2CCOCC2(C)C(=O)N3Cc2ccn(C)n2)cc1 (centres unmarked) [Example 11, 1-methyl-3-(4-(6a-methyl-5-((1-methyl-1H-pyrazol-3-yl)methyl)-6-oxo-5,6,6a,7,9,10-hexahydro-[1,4]oxazino[3,4-h]pteridin-2-yl)phenyl)urea] | 0.0316 to 1
CNC(=O)Nc1ccc(-c2nc(N3CCOCC3)c3c(n2)N2CCOCC2(C)C(=O)N3C)cc1 (centres unmarked) [Example 14, 1-(4-(5,6a-dimethyl-4-morpholino-6-oxo-5,6,6a,7,9,10-hexahydro-[1,4]oxazino[3,4-h]pteridin-2-yl)phenyl)-3-methylurea] | 0.0316 to 1
CNC(=O)Nc1ccc(-c2ncc3c(n2)N2CCOCC2(C)C(=O)N3C(C)C)cc1 (centres unmarked) [Example 15, 1-(4-(5-isopropyl-6a-methyl-6-oxo-5,6,6a,7,9,10-hexahydro-[1,4]oxazino[3,4-h]pteridin-2-yl)phenyl)-3-methylurea] | < 0.0316
CNC(=O)Nc1ccc(-c2ncc3c(n2)N2CCOCC2(C)C(=O)N3CC2CCC2)cc1 (centres unmarked) [Example 16, 1-(4-(5-(cyclobutylmethyl)-6a-methyl-6-oxo-5,6,6a,7,9,10-hexahydro-[1,4]oxazino[3,4-h]pteridin-2-yl)phenyl)-3-methylurea] | < 0.0316
CNC(=O)Nc1ccc(-c2ncc3c(n2)N2CCOCC2(C)C(=O)N3C2CC2)cc1 (centres unmarked) [Example 17, 1-(4-(5-cyclopropyl-6a-methyl-6-oxo-5,6,6a,7,9,10-hexahydro-[1,4]oxazino[3,4-h]pteridin-2-yl)phenyl)-3-methylurea] | 0.0316 to 1
CNC(=O)Nc1ccc(-c2ncc3c(n2)N2CCO[C@@H](C)[C@@]2(C)C(=O)N3CC2CC2)cc1 [Example 18, 1-(4-((6aS,7S)-5-(cyclopropylmethyl)-6a,7-dimethyl-6-oxo-5,6,6a,7,9,10-hexahydro-[1,4]oxazino[3,4-h]pteridin-2-yl)phenyl)-3-methylurea] | < 0.0316
CNC(=O)Nc1ccc(-c2ncc3c(n2)N2C[C@@H](C)OC[C@]2(C)C(=O)N3CC2CC2)cc1 [Example 19, 1-(4-((6aR,9R)-5-(cyclopropylmethyl)-6a,9-dimethyl-6-oxo-5,6,6a,7,9,10-hexahydro-[1,4]oxazino[3,4-h]pteridin-2-yl)phenyl)-3-methylurea] | 0.0316 to 1
CNC(=O)Nc1ccc(-c2ncc3c(n2)N2CCOCC2(C)C(=O)N3C(C)(C)C(=O)O)cc1 (centres unmarked) [Example 20, 2-methyl-2-(6a-methyl-2-(4-(3-methylureido)phenyl)-6-oxo-6a,7,9,10-tetrahydro-[1,4]oxazino[3,4-h]pteridin-5(6H)-yl)propanoic acid TFA salt] | > 1
CNC(=O)Nc1ccc(-c2ncc3c(n2)N2CCOCC2(C)C(=O)N3C[C@H](O)CO)cc1 (stereo partly drawn) [Example 22, 1-(4-(5-((S)-2,3-dihydroxypropyl)-6a-methyl-6-oxo-5,6,6a,7,9,10-hexahydro-[1,4]oxazino[3,4-h]pteridin-2-yl)phenyl)-3-methylurea] | 0.0316 to 1
CNC(=O)Nc1ccc(-c2ncc3c(n2)N2CCOC[C@@]2(C)C(=O)N3C[C@H](O)CO)cc1 [Example 23] | 0.0316 to 1
CNC(=O)Nc1ccc(-c2ncc3c(n2)N2CCOC[C@]2(C)C(=O)N3C[C@H](O)CO)cc1 [Example 24] | > 1
CNC(=O)Nc1ccc(-c2ncc3c(n2)N2CCOC[C@@]2(C)C(=O)N3C2CCOCC2)cc1 [Example 26, (S)-1-methyl-3-(4-(6a-methyl-6-oxo-5-(tetrahydro-2H-pyran-4-yl)-5,6,6a,7,9,10-hexahydro-[1,4]oxazino[3,4-h]pteridin-2-yl)phenyl)urea] | < 0.0316
CNC(=O)Nc1ccc(-c2ncc3c(n2)N2CCOCC2(C)C(=O)N3CC(C)(C)C)cc1 (centres unmarked) [Example 28, 1-methyl-3-(4-(6a-methyl-5-neopentyl-6-oxo-5,6,6a,7,9,10-hexahydro-[1,4]oxazino[3,4-h]pteridin-2-yl)phenyl)urea] | < 0.0316
CC12COCCN1c1nc(-c3ccc(NC(=O)NC4CC4)cc3)ncc1N(C1CCOC1)C2=O (centres unmarked) [Example 30, 1-cyclopropyl-3-(4-(6a-methyl-6-oxo-5-(tetrahydrofuran-3-yl)-5,6,6a,7,9,10-hexahydro-[1,4]oxazino[3,4-h]pteridin-2-yl)phenyl)urea] | < 0.0316
CNC(=O)Nc1ccc(-c2ncc3c(n2)N2CCOCC2(C)C(=O)N3CCCOC)cc1 (centres unmarked) [Example 35, 1-(4-[5-(3-methoxypropyl)-6a-methyl-6-oxo-5,6,6a,7,9,10-hexahydro[1,4]oxazino[3,4-h]pteridin-2-yl]phenyl)-3-methylurea] | < 0.0316
CNC(=O)Nc1ccc(-c2ncc3c(n2)N2CCOC[C@@]2(C)C(=O)N3CCCOC)cc1 [Example 36, (S)-1-(4-[5-(3-methoxypropyl)-6a-methyl-6-oxo-5,6,6a,7,9,10-hexahydro[1,4]oxazino[3,4-h]pteridin-2-yl]phenyl)-3-methylurea] | < 0.0316
COCCCN1C(=O)[C@]2(C)COCCN2c2nc(-c3ccc(NC(=O)NC4CC4)cc3)ncc21 [Example 41, (S)-1-cyclopropyl-3-(4-(5-(3-methoxypropyl)-6a-methyl-6-oxo-5,6,6a,7,9,10-hexahydro-[1,4]oxazino[3,4-h]pteridin-2-yl)phenyl)urea] | < 0.0316
CC12COCCN1c1nc(-c3ccc(NC(=O)NC4CC4)cc3)ncc1N(C1CCS(=O)(=O)CC1)C2=O (centres unmarked) [Example 45, 1-cyclopropyl-3-(4-[5-(1,1-dioxidotetrahydro-2H-thiopyran-4-yl)-6a-methyl-6-oxo-5,6,6a,7,9,10-hexahydro[1,4]oxazino[3,4-h]pteridin-2-yl]phenyl)urea] | 0.0316 to 1
CC12COCCN1c1nc(-c3ccc(NC(=O)NC4CC4)cc3)ncc1N(CCCS(C)(=O)=O)C2=O (centres unmarked) [Example 46, 1-cyclopropyl-3-(4-(6a-methyl-5-(3-(methylsulfonyl)propyl)-6-oxo-5,6,6a,7,9,10-hexahydro-[1,4]oxazino[3,4-h]pteridin-2-yl)phenyl)urea] | < 0.0316
CC(F)(F)CN1C(=O)C2(C)COCCN2c2nc(-c3ccc(NC(=O)NC4CC4)cc3)ncc21 (centres unmarked) [Example 47, 1-cyclopropyl-3-(4-(5-(2,2-difluoropropyl)-6a-methyl-6-oxo-5,6,6a,7,9,10-hexahydro-[1,4]oxazino[3,4-h]pteridin-2-yl)phenyl)urea] | < 0.0316
CC(F)(F)CN1C(=O)[C@]2(C)COCCN2c2nc(-c3ccc(NC(=O)NC4CC4)cc3)ncc21 [Example 49, (S)-1-cyclopropyl-3-(4-(5-(2,2-difluoropropyl)-6a-methyl-6-oxo-5,6,6a,7,9,10-hexahydro-[1,4]oxazino[3,4-h]pteridin-2-yl)phenyl)urea] | < 0.0316
C[C@]12COCCN1c1nc(-c3ccc(NC(=O)NC4CC4)cc3)ncc1N(CC(F)(F)F)C2=O [Example 53, (R)-1-cyclopropyl-3-(4-(6a-methyl-6-oxo-5-(2,2,2-trifluoroethyl)-5,6,6a,7,9,10-hexahydro-[1,4]oxazino[3,4-h]pteridin-2-yl)phenyl)urea] | < 0.0316
